Bridge positions count the residues as written; N and C are the ends. Square brackets hold non-standard residues; d marks the D form. Peptide text beside a SMILES is read from it. Hyp = O=C(O)[C@@H]1C[C@@H](O)CN1
What was measured:
[1] = target: T1, hAMY3 receptor (Homo sapiens, UniProt O60896+P30988); experiment: cAMP assay for in vitro receptor activation, hAMY3-R; type: cell-based; conditions: cAMP assay, hAMY3 receptor; read-out: hAMY3R EC50
T1 sequence (P30988 25-474): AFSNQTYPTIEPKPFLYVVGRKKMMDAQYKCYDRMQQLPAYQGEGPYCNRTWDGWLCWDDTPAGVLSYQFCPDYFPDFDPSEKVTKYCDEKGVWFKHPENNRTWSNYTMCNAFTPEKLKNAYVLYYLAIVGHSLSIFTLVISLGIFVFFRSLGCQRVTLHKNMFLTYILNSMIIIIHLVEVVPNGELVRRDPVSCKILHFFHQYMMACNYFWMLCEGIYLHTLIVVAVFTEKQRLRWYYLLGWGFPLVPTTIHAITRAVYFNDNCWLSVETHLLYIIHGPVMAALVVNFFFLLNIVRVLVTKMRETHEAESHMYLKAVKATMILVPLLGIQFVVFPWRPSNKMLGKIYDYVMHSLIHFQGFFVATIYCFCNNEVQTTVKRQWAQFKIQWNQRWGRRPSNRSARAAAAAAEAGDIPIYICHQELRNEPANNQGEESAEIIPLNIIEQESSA
T1 sequence (O60896 24-148 partner): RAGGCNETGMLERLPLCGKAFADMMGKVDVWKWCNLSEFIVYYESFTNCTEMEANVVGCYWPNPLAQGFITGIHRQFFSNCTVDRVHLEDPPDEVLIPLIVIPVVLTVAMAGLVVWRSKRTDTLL
How it was run: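 Receptor activation was measured as cAMP accumulation in a monoclonal cell line stably overexpressing hAMY3. Stimulation with graded doses lasted 30 min at room temperature in the presence of 0.5 mM IBMX, with human amylin as positive control.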

[2] = Physical stability of peptide analogues (Thioflavin T fibrillation); type: physicochemical; conditions: maximum ThT signal normalized between hAMY maximum and buffer background; 40° C., shaking, four days; pH 7 per table title
How it was run: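 1 h in 50 mM NaOAc pH 4 / 50 mM NaPi pH 7; + ThT 4 μM final; 40 °C, 700 rpm linear shake 5 min pre-read; ex 450, em 480 nm q10 min × 4 d; LOESS smoothing; max signal normalised to hAMY max vs buffer blank.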

Row | EC50 [1] | Max ThT signal (%) [2] | Compound
1 | 19 pM | 16.800% | CC[C@H](C)[C@H](NC(=O)[C@H](CCC(N)=O)NC(=O)[C@H](Cc1c[nH]cn1)NC(=O)[C@H](C)NC(=O)[C@H](CC(C)C)NC(=O)[C@H](Cc1c[nH]c2ccccc12)NC(=O)[C@H](CCC(N)=O)NC(=O)[C@@H](NC(=O)[C@@H](NC(=O)[C@@H]1CSSC[C@H](NC(=O)CN)C(=O)N[C@@H](CCCNC(=N)N)C(=O)N[C@@H](Cc2ccccc2)C(=O)NCC(=O)N[C@@H]([C@@H](C)O)C(=O)N1)[C@@H](C)O)C(C)C)C(=O)N[C@@H](Cc1ccc(O)cc1)C(=O)N[C@@H](CCC(N)=O)C(=O)N[C@@H](Cc1ccccc1)C(=O)N[C@H](C(=O)N[C@@H](CC(=O)O)C(=O)N[C@@H](CCCCN)C(=O)N[C@@H](CC(=O)O)C(=O)N[C@@H](CCCCN)C(=O)N[C@@H](CC(=O)O)C(=O)N[C@@H](CC(N)=O)C(=O)N[C@H](C(=O)N[C@@H](C)C(=O)N1CCC[C@H]1C(=O)N[C@@H](CCCNC(=N)N)C(=O)N[C@H](C(=O)N[C@@H](CCCCN)C(=O)N[C@H](C(=O)N[C@@H](CO)C(=O)N1CCC[C@H]1C(=O)N[C@@H](CC(N)=O)C(=O)NCC(=O)N1C[C@H](O)C[C@H]1C(N)=O)[C@@H](C)CC)[C@@H](C)O)C(C)C)[C@@H](C)O [compound 337] (H-GCRFGTCTVQWLAHQIYQFTDKDKDNVAPRTKISPNG[Hyp]-NH2; disulfide 2-7; N-terminus assumed)
2 | 38 pM | 2.200% | CC[C@H](C)[C@H](NC(=O)[C@H](CCC(N)=O)NC(=O)[C@H](Cc1c[nH]cn1)NC(=O)[C@H](C)NC(=O)[C@H](CC(C)C)NC(=O)[C@H](CCCNC(=N)N)NC(=O)[C@H](CCC(N)=O)NC(=O)[C@@H](NC(=O)[C@@H](NC(=O)[C@@H]1CSSC[C@H](NC(=O)CN)C(=O)N[C@@H](CCCNC(=N)N)C(=O)N[C@@H]([C@@H](C)O)C(=O)NCC(=O)N[C@@H]([C@@H](C)O)C(=O)N1)[C@@H](C)O)C(C)C)C(=O)N[C@@H](Cc1ccc(O)cc1)C(=O)N[C@@H](CCC(N)=O)C(=O)N[C@@H](Cc1ccccc1)C(=O)N[C@H](C(=O)N[C@@H](CC(=O)O)C(=O)N[C@@H](CCCCN)C(=O)N[C@@H](CC(=O)O)C(=O)N[C@@H](CCCCN)C(=O)N[C@@H](CC(=O)O)C(=O)N[C@@H](CC(N)=O)C(=O)N[C@H](C(=O)N[C@@H](C)C(=O)N1CCC[C@H]1C(=O)N[C@@H](CCCNC(=N)N)C(=O)N[C@H](C(=O)N[C@@H](CCCCN)C(=O)N[C@H](C(=O)NCC(=O)N1CCC[C@H]1C(=O)N[C@@H](CCC(N)=O)C(=O)NCC(=O)N1C[C@H](O)C[C@H]1C(N)=O)C(C)C)[C@@H](C)O)C(C)C)[C@@H](C)O [compound 143] (H-GCRTGTCTVQRLAHQIYQFTDKDKDNVAPRTKVGPQG[Hyp]-NH2; disulfide 2-7; N-terminus assumed)
3 | 17 pM | 24.850% | CC[C@H](C)[C@H](NC(=O)[C@H](CCCCN)NC(=O)[C@@H](NC(=O)[C@H](CCCNC(=N)N)NC(=O)[C@@H]1CCCN1C(=O)[C@H](C)NC(=O)[C@@H](NC(=O)[C@H](CC(N)=O)NC(=O)[C@H](CC(=O)O)NC(=O)[C@H](CCCCN)NC(=O)[C@H](CC(=O)O)NC(=O)[C@H](CCCCN)NC(=O)[C@H](CC(=O)O)NC(=O)[C@@H](NC(=O)[C@H](Cc1ccccc1)NC(=O)[C@H](CCC(N)=O)NC(=O)[C@H](Cc1ccc(O)cc1)NC(=O)[C@@H](NC(=O)[C@H](CCC(N)=O)NC(=O)[C@H](Cc1c[nH]cn1)NC(=O)[C@H](C)NC(=O)[C@H](CC(C)C)NC(=O)[C@H](Cc1c[nH]c2ccccc12)NC(=O)[C@H](CCC(N)=O)NC(=O)[C@@H](NC(=O)[C@@H](NC(=O)[C@@H]1CSSC[C@H](NC(=O)CN)C(=O)N[C@@H](CCCNC(=N)N)C(=O)N[C@@H](Cc2ccccc2)C(=O)NCC(=O)N[C@@H]([C@@H](C)O)C(=O)N1)[C@@H](C)O)C(C)C)[C@@H](C)CC)[C@@H](C)O)C(C)C)[C@@H](C)O)C(=O)NCC(=O)N1CCC[C@H]1C(=O)N[C@@H](CC(N)=O)C(=O)NCC(=O)N1C[C@H](O)C[C@H]1C(N)=O [compound 343] (H-GCRFGTCTVQWLAHQIYQFTDKDKDNVAPRTKIGPNG[Hyp]-NH2; disulfide 2-7; N-terminus assumed)

Further lines, the compound ahead of its results:

Row | Compound | EC50 [1] | Max ThT signal (%) [2]
4 | CC[C@H](C)[C@H](NC(=O)[C@H](CCC(N)=O)NC(=O)[C@H](Cc1c[nH]cn1)NC(=O)[C@H](C)NC(=O)[C@H](CC(C)C)NC(=O)[C@H](CCCNC(=N)N)NC(=O)[C@H](CCC(N)=O)NC(=O)[C@@H](NC(=O)[C@@H](NC(=O)[C@@H]1CSSC[C@H](NC(=O)CN)C(=O)N[C@@H](CCCNC(=N)N)C(=O)N[C@@H](Cc2ccccc2)C(=O)NCC(=O)N[C@@H]([C@@H](C)O)C(=O)N1)[C@@H](C)O)C(C)C)C(=O)N[C@@H](Cc1ccc(O)cc1)C(=O)N[C@@H](CCC(N)=O)C(=O)N[C@@H](Cc1ccccc1)C(=O)N[C@H](C(=O)N[C@@H](CC(=O)O)C(=O)N[C@@H](CCCCN)C(=O)N[C@@H](CC(=O)O)C(=O)N[C@@H](CCCCN)C(=O)N[C@@H](CC(=O)O)C(=O)N[C@@H](CC(N)=O)C(=O)N[C@H](C(=O)N[C@@H](C)C(=O)N1CCC[C@H]1C(=O)N[C@@H](CCCNC(=N)N)C(=O)N[C@H](C(=O)N[C@@H](CC(N)=O)C(=O)N[C@H](C(=O)N[C@@H](CO)C(=O)N1CCC[C@H]1C(=O)N[C@@H](CCC(N)=O)C(=O)NCC(=O)N[C@@H](Cc1ccc(O)cc1)C(N)=O)[C@@H](C)CC)[C@@H](C)O)C(C)C)[C@@H](C)O [compound 140] (H-GCRFGTCTVQRLAHQIYQFTDKDKDNVAPRTNISPQGY-NH2; disulfide 2-7; N-terminus assumed) | 36 pM | 3.100%
5 | CC[C@H](C)[C@H](NC(=O)[C@H](CCC(N)=O)NC(=O)[C@H](Cc1c[nH]cn1)NC(=O)[C@H](C)NC(=O)[C@H](CC(C)C)NC(=O)[C@H](CCCNC(=N)N)NC(=O)[C@H](CCC(N)=O)NC(=O)[C@@H](NC(=O)[C@@H](NC(=O)[C@@H]1CSSC[C@H](NC(=O)CN)C(=O)N[C@@H](CCCNC(=N)N)C(=O)N[C@@H](Cc2ccccc2)C(=O)NCC(=O)N[C@@H]([C@@H](C)O)C(=O)N1)[C@@H](C)O)C(C)C)C(=O)N[C@@H](Cc1ccc(O)cc1)C(=O)N[C@@H](CCC(N)=O)C(=O)N[C@@H](Cc1ccccc1)C(=O)N[C@H](C(=O)N[C@@H](CC(=O)O)C(=O)N[C@@H](CCCCN)C(=O)N[C@@H](CC(=O)O)C(=O)N[C@@H](CCCCN)C(=O)N[C@@H](CC(=O)O)C(=O)N[C@@H](CC(N)=O)C(=O)N[C@H](C(=O)N[C@@H](C)C(=O)N1CCC[C@H]1C(=O)N[C@@H](CCCNC(=N)N)C(=O)N[C@@H](CO)C(=O)N[C@@H](CC(N)=O)C(=O)N[C@H](C(=O)N[C@@H](CO)C(=O)N1CCC[C@H]1C(=O)N[C@@H](CCC(N)=O)C(=O)NCC(=O)N[C@@H](Cc1ccc(O)cc1)C(N)=O)C(C)C)C(C)C)[C@@H](C)O [compound 131] (H-GCRFGTCTVQRLAHQIYQFTDKDKDNVAPRSNVSPQGY-NH2; disulfide 2-7) | 31 pM | 6.800%
6 | CC[C@H](C)[C@H](NC(=O)[C@H](CCC(N)=O)NC(=O)[C@H](Cc1c[nH]cn1)NC(=O)[C@H](C)NC(=O)[C@H](CC(C)C)NC(=O)[C@H](CCCNC(=N)N)NC(=O)[C@H](CCC(N)=O)NC(=O)[C@@H](NC(=O)[C@@H](NC(=O)[C@@H]1CSSC[C@H](NC(=O)CN)C(=O)N[C@@H](CCCNC(=N)N)C(=O)N[C@@H]([C@@H](C)O)C(=O)NCC(=O)N[C@@H]([C@@H](C)O)C(=O)N1)[C@@H](C)O)C(C)C)C(=O)N[C@@H](Cc1ccc(O)cc1)C(=O)N[C@@H](CCC(N)=O)C(=O)N[C@@H](Cc1ccccc1)C(=O)N[C@H](C(=O)N[C@@H](CC(=O)O)C(=O)N[C@@H](CCCCN)C(=O)N[C@@H](CC(=O)O)C(=O)N[C@@H](CCCCN)C(=O)N[C@@H](CC(=O)O)C(=O)N[C@@H](CC(N)=O)C(=O)N[C@H](C(=O)N[C@@H](C)C(=O)N1CCC[C@H]1C(=O)N[C@@H](CCCNC(=N)N)C(=O)N[C@H](C(=O)N[C@@H](CC(N)=O)C(=O)N[C@H](C(=O)N[C@@H](CO)C(=O)N1CCC[C@H]1C(=O)N[C@@H](CC(N)=O)C(=O)NCC(=O)N1C[C@H](O)C[C@H]1C(N)=O)[C@@H](C)CC)[C@@H](C)O)C(C)C)[C@@H](C)O [compound 170] (H-GCRTGTCTVQRLAHQIYQFTDKDKDNVAPRTNISPNG[Hyp]-NH2; disulfide 2-7) | 64 pM | 1.800%

— US12139520B2 (priority 2020, dated 2024)
